Values after ≈ are worked out from the molar mass of the structure shown.
Legend:
[1] = tested on: guinea pig tracheal chain preparations; assay: effect on spontaneous tone of guinea pig tracheal chain (ring) preparations, β-stimulant direct relaxant effect on airway smooth muscle; format: cell-based; settings: for absolute separation ratio: atrial ED25 versus tracheal ED50, in vitro guinea pig preparations
Source text: (§1) Two in vitro test systems used for determining selective β-stimulant activity are: (1) effect on spontaneous tone of guinea pig tracheal chain preparations as a measure of β-stimulant (direct relaxant) effect on airway smooth muscle, and (2) effect on rate of spontaneously beating right atria of the guinea pig as a measure of β-stimulant effect on cardiac muscle.

guinea pig right atria = assay: effect on rate of spontaneously beating right atria of the guinea pig, β-stimulant effect on cardiac muscle; format: cell-based; settings: Cavia porcellus, in vitro, read-out: ED25, increasing the rate of contraction of guinea pig right atria
Source text: as §1

SMILES | EC50 ([1]; Cavia porcellus, in vitro, guinea pig tracheal ring preparation, read-out: ED50, relaxes the spontaneous tone of guinea pig tracheal ring preparation) | absolute separation ratio [1] | fold improvement of absolute separation ratio compared to d, l-isoproterenol ([1]; relative to d, l-isoproterenol (absolute separation ratio = 0.5)) | EC25 (guinea pig right atria)
CC(C)(C)NCC(O)COc1ccc(O)c(NS(C)(=O)=O)c1 (centres unmarked) [3-(4-hydroxy-3-methanesulfonamidophenoxy)-1-(tert-butylamino)-2-propanol] | 0.00219 µg/mL (≈ 0.00659 µM) | 186 | 372 fold | 0.409 µg/mL (≈ 1.23 µM)
CC(C)NCC(O)c1ccc(O)c(O)c1 (stereo not drawn) [d, l-isoproterenol, reference compound] | – | 0.5 | – | –
